# According to patent US5541232A, “Treatment of multidrug resistant diseases” (Chemex Pharmaceuticals, Inc., priority 1994, dated 1996):
# “Also recorded” adds a separate entry of the source. Like-named read-outs stand apart in the source and are kept apart here.
# Legend:
# [1] = system: CAK-1 Renal cancer cells; experiment: in vitro cytotoxicity anti tumor activity; format: cell-based; conditions: read-out: IC50
# [2] = system: Lung (LX-1) cancer cells; experiment: in vitro cytotoxicity anti tumor activity; format: cell-based; conditions: 1 h; One Hour Pulse Treatment; read-out: IC50
# [3] = system: OVCAR3 ovarian cancer cells; experiment: in vitro cytotoxicity anti tumor activity; format: cell-based; conditions: Homo sapiens, read-out: IC50
# [4] = system: Detroit 551 Skin Fibroblasts; experiment: in vitro cytotoxicity, normal cells; format: cell-based; conditions: Homo sapiens, read-out: IC50
# [5] = system: Hs 68 Newborn Foreskin Fibroblasts; experiment: in vitro cytotoxicity, normal cells; format: cell-based; conditions: Homo sapiens, read-out: IC50
# [6] = system: normal cells; experiment: toxicity to normal cells as opposed to cancer cells; format: cell-based
# [7] = system: GRC-1 multidrug resistant human cervical carcinoma cells; experiment: modulation of VBL toxicity (colony formation), GRC-1; format: cell-based; conditions: 25 μM masoprocol, 10 days, 37° C.
# Protocol: Drug-sensitive KB-3-1 cells and the drug resistant subline (KB-GRC-1) were obtained from Dr. Igor Roninson (University of Illinois, College of Medicine, Chicago, Ill.). Cells were maintained in Dulbecco's modified Eagle's medium supplemented with 10% fetal bovine serum and 2 mM glutamine. The KB-GRC-1 cells were maintained in medium supplemented with 6 ng/ml colchicine.
# To test the modulation of VBL toxicity by masoprocol, cells which had been seeded at 200-300 cells/dish were incubated in media containing various concentrations of VBL in the absence or presence of 25 μM masoprocol. After an incubation period of 10 days at 37° C. the cells were fixed and stained, and the number of colonies per dish were counted and expressed as a percent of the number of colonies formed in control conditions. 1.
# [8] = system: KB-3-1 human cervical carcinoma cells; experiment: efflux of VBL, KB-3-1; format: cell-based; conditions: 50 μM masoprocol
# Protocol: A further test was conducted to show the effect of masoprocol on the efflux of VBL from cells. Cells were incubated with [^3 H]VBL with or without 50 μM masoprocol for 2 hours. The medium was then replaced with drug-free medium. After incubation for various times, the amount of VBL remaining in the cells was determined as described above. The data was presented in terms of the percentage of VBL remaining at various efflux times compared to VBL in cells with an efflux time of zero. In FIGS. 3a and 3b, efflux is expressed as pmol VBL. In FIGS. 3c and 3d, efflux is expressed as percentage of VBL levels at time zero.
# [9] = system: KB-3-1 human cervical carcinoma cells; experiment: modulation of cisplatin uptake; format: cell-based; conditions: one hour, 5 μM cisplatin; FIG. 5
# Protocol: Subconfluent cultures of KB-3-1 cells were incubated with [^3 H]cisplatin (cis-DDP) in culture medium or in medium containing the indicated concentrations of masoprocol as presented in FIG. 5. After one hour incubation, the medium was aspirated and the cells washed 5 times with ice cold PBS. Cells were digested overnight in 1N NaOH, at which time aliquots were used to determine protein content and radioactivity. The final concentration of cisplatin was 5 μM. Each data point represents the mean of triplicate dishes from replicate experiments. The vertical bars are +/- standard deviations.
# [10] = system: malignant melanoma; conditions: in vivo; cited from earlier work
# [11] = system: several types of cancer cells; conditions: Cancer Chemotherapy National Service Center; cited from earlier work
# [12] = system: benign, paramalignant and malignant growth of the skin; conditions: in combination with ionic zinc; cited from earlier work
# [13] = system: mammals; conditions: in vivo; cited from earlier work
smiles,measurement,setting,value
"C[C@H](Cc1ccc(O)c(O)c1)[C@@H](C)Cc1ccc(O)c(O)c1 [Masoprocol, meso-1,4-bis (3,4-dihydroxyphenyl)-2,3-dimethylbutane]",IC50,"[1]; 1 h, One Hour Pulse Treatment",211 µM
same,IC50,"[1]; Continuous Drug Exposure, observation at 70 hours",53.4 µM
same,IC50,[2],18 µM
same,IC50,"[3]; OVCAR-3, 1 h, One Hour Pulse Treatment",258 µM
same,IC50,"[3]; OVCAR-3, Continuous Drug Exposure, observation at 70 hours",35.9 µM
same,IC50,"[4]; Detroit 551, 1 h, One Hour Pulse Treatment",62.7 µM
same,IC50,"[4]; Detroit 551, Continuous Drug Exposure, observation at 70 hours",312 µM
same,IC50,"[5]; Hs68, 1 h, One Hour Pulse Treatment",178 µM
same,IC50,"[5]; Hs68, Continuous Drug Exposure, observation at 70 hours",18 µM
same,toxicity to normal cells versus doxorubicin,[6],less toxic than doxorubicin
same,effect on VBL cytotoxicity / colony formation,[7],increase in the cytotoxicity of VBL; also recorded: increases the cytotoxic effect of VBL
same,modulation of VBL efflux,[8],does not modulate VBL efflux
same,VBL levels at efflux time zero,"[8]; 2 hours, FIG. 3b",higher in masoprocol-treated cells
same,percent of VBL retained at various efflux time points,[8]; FIG. 3d,not affected by masoprocol treatment
same,modulation of VBL efflux,[8]; listed as masoprocol,does not influence the rate of efflux of VBL
same,increase in uptake of cisplatin,[9],about 25%
same,result against malignant melanoma,[10],positive result
same,result in screening against cancer cells,[11],negative results
same,effectiveness in treatment of growth of the skin,[12],effective
same,retarding senescence or aging,[13],having efficacy in retarding senescence or aging in mammals
